# Test results as given in publication PMC11358092, “Caspofungin enhances the potency of rifampin against Gram-negative bacteria” (Frontiers in Microbiology, 2024).
# Structures can show the parent of a compound that is named as a salt. Where two headings read alike, the source gives them in different places.
# Assays:
# E. coli MG1655 [1] = assay: High-throughput screening of FDA-approved drug library for antibiotic adjuvants (growth inhibition, OD600); assay type: cell-based, Escherichia coli
# E. coli MG1655 [2] = assay: as above; assay type: cell-based, Escherichia coli; details: library drug alone, LB medium, 96-well, 8 h static culture at 37°C, relative to PMBN (positive) and DMSO (negative) controls, %, table head prints no unit
Compound,"Growth inhibition, Compound (E. coli MG1655 [2]) [%]",further results
CC(=O)OC[C@H]1O[C@@H]([S-])[C@H](OC(C)=O)[C@@H](OC(C)=O)[C@@H]1OC(C)=O.CCP(CC)CC.[Au+] [Auranofin],64,"Growth inhibition, Compound + rifampin (E. coli MG1655 [1]): 60%"
Cefetamet pivoxil hydrochloride,98,"Growth inhibition, Compound + rifampin (E. coli MG1655 [1]): 79%"
O=C(O)c1cn(C2CC2)c2cc(N3CCNCC3)c(F)cc2c1=O [Ciprofloxacin hydrochloride hydrate],–,"Growth inhibition, Compound (E. coli MG1655 [1]): 101%"
O=C(O)c1cn(C2CC2)c2cc(N3CCNCC3)c(F)cc2c1=O [Ciprofloxacin hydrochloride],–,"Growth inhibition, Compound (E. coli MG1655 [1]): 98%"
Polymyxin B sulfate (1404-26-8 free base),–,"Growth inhibition, Compound + rifampin (E. coli MG1655 [1]; library drug with 2 μg/mL rifampin, LB medium, 96-well, 8 h static culture at 37°C, OD600, relative to PMBN (positive) and DMSO (negative) controls, %, table head prints no unit): 104%"
CCN1CCN(C(=O)N[C@@H](C(=O)N[C@@H]2C(=O)N3[C@@H]2SC(C)(C)[C@@H]3C(=O)O)c2ccccc2)C(=O)C1=O [piperacillin],107,–
[O-][n+]1ccccc1SSc1cccc[n+]1[O-] [Dipyrithione],104,–
CNc1ncc(-c2ccc3c(=O)c(C(=O)O)cn(C4CC4)c3c2C)cc1C [Ozenoxacin],106,–
CC(=O)OCC1=C(C(=O)O)N2C(=O)[C@@H](NC(=O)Cc3cccs3)[C@H]2SC1 [Cephalotin acid],92,–
C[C@H]1COc2c(N3CCN(C)CC3)c(F)cc3c(=O)c(C(=O)O)cn1c23 [Levofloxacin],102,–
Cc1nnc(SCC2=C(C(=O)O)N3C(=O)[C@@H](NC(=O)Cn4cc(Cl)c(=O)c(Cl)c4)[C@H]3SC2)s1 [Cefazedone],111,–
CCCCCCCCN=c1ccn(CCCCCCCCCCn2ccc(=NCCCCCCCC)cc2)cc1 [Octenidine Dihydrochloride],91,–
CS(=O)(=O)c1ccc([C@@H](O)[C@@H](CO)NC(=O)C(Cl)Cl)cc1 [Thiamphenicol],66,–
CO/N=C(\C(=O)N[C@@H]1C(=O)N2C(C(=O)O)=C(COC(C)=O)CS[C@H]12)c1csc(N)n1 [Cefotaxime sodium],99,–
CCN[C@@H]1C[C@H](N)[C@@H](O[C@H]2OC(CN)=CC[C@H]2N)[C@H](O)[C@H]1O[C@H]1OC[C@](C)(O)[C@H](NC)[C@H]1O.CCN[C@@H]1C[C@H](N)[C@@H](O[C@H]2OC(CN)=CC[C@H]2N)[C@H](O)[C@H]1O[C@H]1OC[C@](C)(O)[C@H](NC)[C@H]1O.O=S(=O)(O)O.O=S(=O)(O)O.O=S(=O)(O)O.O=S(=O)(O)O.O=S(=O)(O)O [Netilmicin sulfate],109,–
CN[C@@H]1[C@H](O[C@H]2[C@H](O[C@H]3[C@H](O)[C@@H](O)[C@H](NC(=N)N)[C@@H](O)[C@@H]3NC(=N)N)O[C@@H](C)[C@]2(O)CO)O[C@@H](CO)[C@H](O)[C@H]1O [Dihydrostreptomycin sulfate],106,–
C[C@H]1COc2c(N3CCN(C)CC3)c(F)cc3c(=O)c(C(=O)O)cn1c23 [Levofloxacin hydrochloride],110,–
CCN1C(=O)C=CC1=O [N-Ethylmaleimide],106,–
Cc1ccc2c(Cl)cc(Cl)c(O)c2n1 [Chloquinan],119,–
COc1c(N2C[C@@H]3CCCN[C@@H]3C2)c(F)cc2c(=O)c(C(=O)O)cn(C3CC3)c12 [Moxifloxacin hydrochloride],111,–
N[C@@H]1CN(c2c(F)cc3c(=O)c(C(=O)O)cn([C@@H]4C[C@@H]4F)c3c2Cl)CC12CC2.N[C@@H]1CN(c2c(F)cc3c(=O)c(C(=O)O)cn([C@@H]4C[C@@H]4F)c3c2Cl)CC12CC2.O.O.O [Sitafloxacin Hydrate],101,–
CO/N=C1\CN(c2nc3c(cc2F)c(=O)c(C(=O)O)cn3C2CC2)CC1CN (stereo not shown) [Gemifloxacin mesylate],105,–
S=C=NCc1ccccc1 [Benzyl isothiocyanate],71,–
